Each compound was assayed against T1, fMet-Leu-Phe receptor (Homo sapiens, UniProt P21462) (assay: FPR1 fluorescent ligand binding inhibitors, dose response, cell-based, flow cytometry, Ki from IC50 (AID 724)).
T1 sequence (P21462 whole entry): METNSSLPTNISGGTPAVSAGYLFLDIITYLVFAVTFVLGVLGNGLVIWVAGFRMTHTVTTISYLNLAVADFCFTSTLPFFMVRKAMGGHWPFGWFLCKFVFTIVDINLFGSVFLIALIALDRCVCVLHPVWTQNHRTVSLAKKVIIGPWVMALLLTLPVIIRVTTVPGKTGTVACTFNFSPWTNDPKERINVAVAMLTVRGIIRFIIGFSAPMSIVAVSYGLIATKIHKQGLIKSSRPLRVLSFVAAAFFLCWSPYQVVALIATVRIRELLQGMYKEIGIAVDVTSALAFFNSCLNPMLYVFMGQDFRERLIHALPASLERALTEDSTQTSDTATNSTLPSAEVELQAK

IC50 | SMILES
17.2 µM | CC(=O)C1C(=O)C(=O)N(CCc2c(C)[nH]c3ccccc23)C1c1cccc(F)c1 (stereo not given)
7.1 µM | COc1ccc(C2C(C(=O)c3cccs3)C(=O)C(=O)N2CCCn2ccnc2)cc1 (stereo not given) [1-(3-imidazol-1-ylpropyl)-2-(4-methoxyphenyl)-4-oxidanyl-3-thiophen-2-ylcarbonyl-2H-pyrrol-5-one]
4.4 µM | COc1ccc(C2C(C(=O)c3cccs3)C(=O)C(=O)N2CCN2CCOCC2)c(OC)c1 (stereo not given) [2-(2,4-dimethoxyphenyl)-1-(2-morpholin-4-ylethyl)-4-oxidanyl-3-thiophen-2-ylcarbonyl-2H-pyrrol-5-one]
10.6 µM | O=C1C(=O)N(CCc2ccccc2)C(c2ccc(Cl)cc2)C1C(=O)c1cccs1 (stereo not given) [2-(4-chlorophenyl)-4-hydroxy-1-(2-phenylethyl)-3-(thiophene-2-carbonyl)-2H-pyrrol-5-one]
9.8 µM | COc1ccc(C2C(C(=O)c3ccco3)C(=O)C(=O)N2CCN2CCOCC2)c(OC)c1 (stereo not given) [5-(2,4-dimethoxyphenyl)-4-(furan-2-carbonyl)-3-hydroxy-1-(2-morpholinoethyl)-1H-pyrrol-2(5H)-one]
25.7 µM | COc1ccc(OC)c(C2C(C(=O)c3ccccc3)C(=O)C(=O)N2c2ccc(C)c(Cl)c2)c1 (stereo not given) [(4E)-1-(3-chloranyl-4-methyl-phenyl)-5-(2,5-dimethoxyphenyl)-4-[oxidanyl(phenyl)methylidene]pyrrolidine-2,3-dione]
47.5 µM | COc1ccc(C2C(C(=O)c3ccccc3)C(=O)C(=O)N2c2cccc(Cl)c2)c(OC)c1 (stereo not given) [(4E)-1-(3-chlorophenyl)-5-(2,4-dimethoxyphenyl)-4-[hydroxy(phenyl)methylene]pyrrolidine-2,3-quinone]
31.1 µM | COCCCN1C(=O)C(=O)C(C(=O)c2ccccc2)C1c1ccc(C(C)C)cc1 (stereo not given) [(4E)-1-(3-methoxypropyl)-4-[oxidanyl(phenyl)methylidene]-5-(4-propan-2-ylphenyl)pyrrolidine-2,3-dione]
50.7 µM | CC(C)c1ccc(C2C(C(=O)c3ccccc3)C(=O)C(=O)N2Cc2cccnc2)cc1 (stereo not given) [(4E)-4-[hydroxy(phenyl)methylene]-5-p-cumenyl-1-(3-pyridylmethyl)pyrrolidine-2,3-quinone]
5.2 µM | COc1ccc(C2C(C(=O)c3ccccc3)C(=O)C(=O)N2CCCn2ccnc2)c(OC)c1 (stereo not given) [(4E)-5-(2,4-dimethoxyphenyl)-1-(3-imidazol-1-ylpropyl)-4-[oxidanyl(phenyl)methylidene]pyrrolidine-2,3-dione]
59.7 µM | COc1ccc(C2C(C(=O)c3ccc(C)cc3)C(=O)C(=O)N2Cc2cccnc2)c(OC)c1 (stereo not given) [(4E)-5-(2,4-dimethoxyphenyl)-4-[(4-methylphenyl)-oxidanyl-methylidene]-1-(pyridin-3-ylmethyl)pyrrolidine-2,3-dione]
2.8 µM | COCCN1C(=O)C(=O)C(C(=O)c2ccccc2)C1c1cc(OC)ccc1OC (stereo not given) [(4E)-5-(2,5-dimethoxyphenyl)-1-(2-methoxyethyl)-4-[oxidanyl(phenyl)methylidene]pyrrolidine-2,3-dione]
9.2 µM | COc1ccc(OC)c(C2C(C(=O)c3ccccc3)C(=O)C(=O)N2c2cccnc2)c1 (stereo not given) [(4E)-5-(2,5-dimethoxyphenyl)-4-[hydroxy(phenyl)methylene]-1-(3-pyridyl)pyrrolidine-2,3-quinone]
50.5 µM | COCCCN1C(=O)C(=O)C(C(=O)c2ccccc2)C1c1ccc(O)c(OC)c1 (stereo not given) [(4E)-5-(3-methoxy-4-oxidanyl-phenyl)-1-(3-methoxypropyl)-4-[oxidanyl(phenyl)methylidene]pyrrolidine-2,3-dione]
7.2 µM | CCCCCCN1C(=O)C(=O)C(C(=O)c2ccccc2)C1c1ccc(O)c(OC)c1 (stereo not given) [(4Z)-1-hexyl-5-(3-methoxy-4-oxidanyl-phenyl)-4-[oxidanyl(phenyl)methylidene]pyrrolidine-2,3-dione]
